From patent US20050255537A1, “Method for monitoring treatment with a parathyroid hormone” (priority 1999, published 2005)
“And” between values parts separate entries of the source, which are not always exact repeats. Equal values may be shown once.

Assays:
[1] = tested on: BSAP and PICP serum levels, NTX urine levels; assay: Example 2 clinical trial of rhPTH(1-34) plus hormone replacement therapy vs HRT: bone markers; type: in vivo, human; details: 40 μg/day PTH plus HRT
Description: • Number of Subjects: • rhPTH(1-34) plus hormone replacement therapy (HRT) (estrogen±progesterone): 122 enrolled, 91 finished. • Control, hormone replacement therapy (estrogen±progesterone) without PTH: 125 enrolled, 105 finished. • Diagnosis and Inclusion Criteria: Women aged 62±8 years, postmenopausal for 15±8 years, selected for a baseline spine bone mineral density of 0.9±0.15 and a T value of −1.8. • Dosage and Administration: • Test Product (blinded) • rhPTH(1-34): 40 μg/day, given subcutaneously plus hormone replacement therapy (estrogen±progesterone). Subjects continued their prestudy hormone replacement therapy, maintained an HRT regimen consistent with local medical practices, took continuous/combined estrogen and progestin therapy using oral Premarin (0.625 mg/day) and oral Provera (2.5 mg/day) (intact uterus), or took estrogen therapy using oral Premarin (0.625 mg/day) (without intact uterus). • Reference (Control) Therapy (Blinded) • Hormone replacement therapy (estrogen±progesterone). Subjects continued their prestudy hormone replacement therapy, maintained an HRT regimen consistent with local medical practices, took continuous/combined estrogen and progestin therapy using oral Premarin (0.625 mg/day) and oral Provera (2.5 mg/day) (intact uterus), or took estrogen therapy using oral Premarin (0.625 mg/day) (without intact uterus). • Duration of Treatment: • rhPTH(1-34): up to 18 months • Control: up to 18 months • Criteria for Evaluation: Spine x-ray, serum biological makers (calcium, bone-specific alkaline phosphatase procollagen I carboxy-terminal propeptide); urine markers (calcium, N-telopeptide, fee deoxypyridinoline); 1,25-dihydroxyvitamin D; bone mineral density: spine, hip, wrist, and total body.
Measures of BSAP, PICP, and NTX levels were determined for each patient through the course of therapy generally according to methods described above in Example 1.

postmenopausal women = assay: Pharmacokinetic/pharmacodynamic sigmoid Emax models (spine BMD, femoral neck BMD, PICP); type: in vivo, human
Source text: In order to explore the relationship between concentration and the effect on spine BMD, a pharmacokinetic/pharmacodynamic model was developed. This relationship was best described by a sigmoid Emax model with AUC50 estimated at 170 pg·hr/mL.
A pharmacokinetic/pharmacodynamic model was also developed for femoral neck BMD. The relationship was best described by a sigmoid Emax model with AUC50 estimated at 283 pg·hr/mL. […] Thus, the final pharmacodynamic model which included treatment group rather than systemic exposure, predicted the increase in hip BMD in a patient of average age (˜69 years), body weight (˜66 kg), and baseline NTX concentration (˜48 mmBCE/L) to be approximately 2.8% and 5.2% after 21 months of 20 μg/day and 40 μg/day therapy, respectively.
A pharmacokinetic/pharmacodynamic model was developed for the PICP response. […] Thus, LY333334 exposure was a less significant predictor of elevation in PICP concentrations than administered dose.

[2] = tested on: men with primary osteoporosis; assay: Example 5 study GHAJ: bone densitometry (BMD, BMC) in men; type: in vivo, human; details: for Distal Radius (Forearm) BMD, mean change from baseline to endpoint / Distal Radius (Forearm) BMD, mean percent change from baseline to endpoint / Ultradistal Radius (Forearm) BMD, mean change from baseline to endpoint / Ultradistal Radius (Forearm) BMD, mean percent change from baseline to endpoint / Whole body BMD, mean change from baseline to endpoint: subset of patients; for increase in lumbar spine BMD compared to placebo at endpoint: median follow-up approximately 11 months
Description: Four hundred thirty seven men with primary osteoporosis were enrolled in the study. Approximately one-third of die patients were randomly assigned to LY333334 40 μg/day plus calcium and vitamin D, one-third of the patients were randomly assigned to LY333334 20 μg/day plus calcium and vitamin D, and one-third of the patients were randomly assigned to placebo plus calcium and vitamin D. • Number of Subjects: • PTH: Male 437, Female 0, Total 437; • LY333334 20 μg: Male: Total 151. • LY333334 40 μg: Male: Total 139. • Placebo: Male: Total 147. • Diagnosis and Inclusion Criteria: The study patients were men with primary osteoporosis, aged 30 to 85 years, inclusive. L-2 to L-4 vertebrae must have been intact without artifacts, crush fracture or other abnormalities which would have interfered with the analysis of the posterior-anterior lumbar spine bone mineral density (BMD) measurement which must have been at least 2.0 SD below that of young, healthy men. […] Patient Demographic and Other Baseline Characteristics

human subjects = assay: Applicant's studies of daily dose of hPTH(1-34) in human subjects (bone markers, side effects); type: in vivo
Description: Therefore, treatment of osteoporosis in men or women with hPTH(1-34) preferably should use a daily dose greater than about 6 μg, more preferably at least about 15 μg. […] Therefore, any daily dose of hPTH(1-34) in the range of greater than about 6 μg to at least about 40 μg would be effective for reduction of the risk of both vertebral and nonvertebral fractures, according to the present method of using this form of parathyroid hormone.

[3] = about 5-6 weeks following termination (18 months)

Compound: CC[C@H](C)[C@H](NC(=O)[C@H](CCC(=O)O)NC(=O)[C@H](CO)NC(=O)[C@@H](NC(=O)[C@@H](N)CO)C(C)C)C(=O)N[C@@H](CCC(N)=O)C(=O)N[C@@H](CC(C)C)C(=O)N[C@@H](CCSC)C(=O)N[C@@H](Cc1cnc[nH]1)C(=O)N[C@@H](CC(N)=O)C(=O)N[C@@H](CC(C)C)C(=O)NCC(=O)N[C@@H](CCCCN)C(=O)N[C@@H](Cc1cnc[nH]1)C(=O)N[C@@H](CC(C)C)C(=O)N[C@@H](CC(N)=O)C(=O)N[C@@H](CO)C(=O)N[C@@H](CCSC)C(=O)N[C@@H](CCC(=O)O)C(=O)N[C@@H](CCCN=C(N)N)C(=O)N[C@H](C(=O)N[C@@H](CCC(=O)O)C(=O)N[C@@H](Cc1c[nH]c2ccccc12)C(=O)N[C@@H](CC(C)C)C(=O)N[C@@H](CCCN=C(N)N)C(=O)N[C@@H](CCCCN)C(=O)N[C@@H](CCCCN)C(=O)N[C@@H](CC(C)C)C(=O)N[C@@H](CCC(N)=O)C(=O)N[C@@H](CC(=O)O)C(=O)N[C@H](C(=O)N[C@@H](Cc1cnc[nH]1)C(=O)N[C@@H](CC(N)=O)C(=O)N[C@@H](Cc1ccccc1)C(=O)O)C(C)C)C(C)C [LY333334]
- percent change in PICP serum levels during treatment ([1]; FIG. 5): reached a peak within about one or two months
- percent change in NTX urine levels during treatment ([1]; FIG. 6): increased steadily until about 6 months after treatment initiation and remained at about the same high level at 12 months
- BSAP level after termination of PTH treatment [1, 3]: maintained an elevated level
- PICP levels after termination of PTH treatment [1, 3]: PICP levels were the same as HRT controls
- percent change in NTX levels after termination of PTH treatment [1, 3]: had declined and approached levels similar to those observed in the control group
- increase in PICP concentration at 1 month as % of the maximum effect (postmenopausal women; 20 μg dose): 70%
- increase in femoral neck BMD as % of the maximum effect (postmenopausal women; 20 μg dose): 56%
- increase in spine BMD as % of the maximum effect (postmenopausal women; 20 μg dose): 82%
- increase in PICP concentration at 1 month as % of the maximum effect (postmenopausal women; 40 μg dose): 85%
- increase in femoral neck BMD as % of the maximum effect (postmenopausal women; 40 μg dose): 67%
- increase in spine BMD as % of the maximum effect (postmenopausal women; 40 μg dose): 92%
- AUC50, sigmoid Emax model for PICP response (postmenopausal women; PICP): 239 pg·h/mL
- AUC50, sigmoid Emax model for femoral neck BMD (postmenopausal women; femoral neck BMD): 283 pg·h/mL
- AUC50, sigmoid Emax model for spine BMD (postmenopausal women; spine BMD): 170 pg·h/mL
- patients with a decrease in vertebral BMD at study endpoint ([2]; 20 μg): 7.1%
- increase in whole body BMC compared with the placebo group ([2]; 20 μg group): approximately 0.9%
- Femoral Neck BMD, mean change from baseline to endpoint ([2]; 20 μg/day): 0.01 ± 0.03 g/cm^2
- Femoral Neck BMD, mean percent change from baseline to endpoint ([2]; 20 μg/day): 1.4% and 1.44% and 1.44 ± 3.61%
- Intertrochanter BMD, mean change from baseline to endpoint ([2]; 20 μg/day): 0.01 ± 0.03 g/cm^2
- Intertrochanter BMD, mean percent change from baseline to endpoint ([2]; 20 μg/day): 1.20 ± 3.07%
- Lumbar Spine (L-1 through L-4) BMD, mean change from baseline to endpoint ([2]; 20 μg/day): 0.05 ± 0.04 g/cm^2
- Lumbar Spine (L-1 through L-4) BMD, mean percent change from baseline to endpoint ([2]; 20 μg/day): 5.7% and 5.73% and 5.73 ± 4.46%
- Total Hip BMD, mean change from baseline to endpoint ([2]; 20 μg/day): 0.01 ± 0.02 g/cm^2
- Total Hip BMD, mean percent change from baseline to endpoint ([2]; 20 μg/day): 1.14% and 1.14 ± 2.89%
- Trochanter BMD, mean change from baseline to endpoint ([2]; 20 μg/day): 0.01 ± 0.03 g/cm^2
- Trochanter BMD, mean percent change from baseline to endpoint ([2]; 20 μg/day): 1.25 ± 4.15%
- Ward's Triangle BMD, mean change from baseline to endpoint ([2]; 20 μg/day): 0.01 ± 0.04 g/cm^2
- Ward's Triangle BMD, mean percent change from baseline to endpoint ([2]; 20 μg/day): 2.48 ± 7.20%
- increase in hip (femoral neck) BMC at study endpoint ([2]; 20 μg/day): 1%
- increase in lumbar spine BMC at study endpoint ([2]; 20 μg/day): 7%
- Distal Radius (Forearm) BMD, mean change from baseline to endpoint ([2]; 20 μg/day): −0.00 ± 0.02 g/cm^2
- Distal Radius (Forearm) BMD, mean percent change from baseline to endpoint ([2]; 20 μg/day): −0.47 ± 2.21%
- Ultradistal Radius (Forearm) BMD, mean change from baseline to endpoint ([2]; 20 μg/day): −0.00 ± 0.01 g/cm^2
- Ultradistal Radius (Forearm) BMD, mean percent change from baseline to endpoint ([2]; 20 μg/day): −0.40 ± 3.15%
- Whole body BMD, mean change from baseline to endpoint ([2]; 20 μg/day): 0.01 ± 0.03 g/cm^2
- patients with a decrease in vertebral BMD at study endpoint ([2]; 40 μg): 6.2%
- decrease in distal ⅓ radius (forearm) BMD compared with the placebo group ([2]; 40 μg group): 1.0%
- increase in whole body BMC compared with the placebo group ([2]; 40 μg group): 1.3%
- Femoral Neck BMD, mean change from baseline to endpoint ([2]; 40 μg/day): 0.02 ± 0.04 g/cm^2
- Femoral Neck BMD, mean percent change from baseline to endpoint ([2]; 40 μg/day): 2.9% and 2.85% and 2.85 ± 6.07%
- Intertrochanter BMD, mean change from baseline to endpoint ([2]; 40 μg/day): 0.02 ± 0.04 g/cm^2
- Intertrochanter BMD, mean percent change from baseline to endpoint ([2]; 40 μg/day): 2.32 ± 4.57%
- Lumbar Spine (L-1 through L-4) BMD, mean change from baseline to endpoint ([2]; 40 μg/day): 0.07 ± 0.05 g/cm^2
- Lumbar Spine (L-1 through L-4) BMD, mean percent change from baseline to endpoint ([2]; 40 μg/day): 8.8% and 8.75% and 8.75 ± 6.25%
- Total Hip BMD, mean change from baseline to endpoint ([2]; 40 μg/day): 0.02 ± 0.03 g/cm^2
- Total Hip BMD, mean percent change from baseline to endpoint ([2]; 40 μg/day): 2.33% and 2.33 ± 4.51%
- Trochanter BMD, mean change from baseline to endpoint ([2]; 40 μg/day): 0.01 ± 0.03 g/cm^2
- Trochanter BMD, mean percent change from baseline to endpoint ([2]; 40 μg/day): 1.98 ± 5.16%
- Ward's Triangle BMD, mean change from baseline to endpoint ([2]; 40 μg/day): 0.03 ± 0.05 g/cm^2
- Ward's Triangle BMD, mean percent change from baseline to endpoint ([2]; 40 μg/day): 6.19 ± 10.21%
- increase in hip (femoral neck) BMC at study endpoint ([2]; 40 μg/day): 3%
- increase in lumbar spine BMC at study endpoint ([2]; 40 μg/day): 10%
- Distal Radius (Forearm) BMD, mean change from baseline to endpoint ([2]; 40 μg/day): −0.01 ± 0.02 g/cm^2
- Distal Radius (Forearm) BMD, mean percent change from baseline to endpoint ([2]; 40 μg/day): −0.67 ± 2.36%
- Ultradistal Radius (Forearm) BMD, mean change from baseline to endpoint ([2]; 40 μg/day): 0.00 ± 0.02 g/cm^2
- Ultradistal Radius (Forearm) BMD, mean percent change from baseline to endpoint ([2]; 40 μg/day): 0.54 ± 5.98%
- Whole body BMD, mean change from baseline to endpoint ([2]; 40 μg/day): 0.01 ± 0.03 g/cm^2
- patients with an increase in lumbar spine BMD of 5% or more ([2]; 20-μg group): 54.6%
- lumbar spine BMD increase from baseline by visit ([2]; 20-μg group, Month 3): 2.44%
- lumbar spine BMD increase from baseline by visit ([2]; 20-μg group, Month 6): 4.29
- difference in lumbar spine BMD between treatment group and placebo ([2]; 20-μg group, Month 12): 5.49%
- lumbar spine BMD increase from baseline by visit ([2]; 20-μg group, Month 12): 6.07%
- increase in lumbar spine BMD compared to placebo at endpoint ([2]; 20-μg/day): 5%
- lumbar spine BMD response in hypogonadal vs idiopathic subgroups ([2]; 20 and 40 μg): did not differ significantly
- patients with an increase in lumbar spine BMD of 5% or more ([2]; 40-μg group): 70.5%
- lumbar spine BMD increase from baseline by visit ([2]; 40-μg group, Month 3): 3.87%
- lumbar spine BMD increase from baseline by visit ([2]; 40-μg group, Month 6): 6.33%
- difference in lumbar spine BMD between treatment group and placebo ([2]; 40-μg group, Month 12): 8.83%
- lumbar spine BMD increase from baseline by visit ([2]; 40-μg group, Month 12): 9.41%
- increase in lumbar spine BMD compared to placebo at endpoint ([2]; 40-μg/day): 8%
- distal ⅓ radius (forearm) and ultradistal radius BMD compared with the placebo group ([2]; both 20-μg and 40-μg groups): unchanged
- effect on bone formation as indicated by bone markers (human subjects; 6 μg): no significant effects
- undesirable side effects (human subjects; daily dose of about 20 μg vs about 40 μg): fewer undesirable side effects
- lowest tested dose effective for stimulation of bone formation, as indicated by bone markers (human subjects; human subjects, daily dose): about 15 μg
